Patent US8106077B2, “Compounds and methods for modulating FXR” (Eli Lilly and Company, priority 2007, dated 2012)

Tests used:
LDLR−/− mice = assay: LDLR−/− serum lipid modulation; assay type: in vivo; conditions: male LDLR−/− mice on western diet, 10 mg/kg, oral gavage once daily for seven days
Experimental: Acclimate animals for two weeks prior to study initiation. House mice individually in polycarbonate cages with filter tops, and maintain mice on a 12:12 hour light-dark cycle (lights on at 6:00 AM) at 21° C. Provide deionized water ad libitum and maintain for two weeks on ‘western diet’ TD 88137 Diet (42% fat, 0.15% cholesterol, Harlan Teklad) ad libitum. Optimize groups of five ten-week-old male LDLR−/− mice based on serum triglyceride and cholesterol levels. Dose groups once daily by oral gavage with various doses of the test compound dissolved in 5% EtOH/5% Solutol in NaCMC (1%), SLS (0.5%), antifoam (0.05%), Povidone (0.085%) for seven days. At the end of the seven-day dosing period, collect blood by cardiac puncture after asphyxiation in a CO2 chamber. […] Lipoproteins were separated by fast protein liquid chromatography, and cholesterol was quantitated with an in-line detection system. […] The colored product produced in the presence of cholesterol was monitored in the flow stream at 505 nm, and the analog voltage from the monitor was converted to a digital signal for collection and analysis. The change in voltage corresponding to change in cholesterol concentration was plotted vs. time, and the area under the curve corresponding to the elution of VLDL-C and HDL-C was calculated using Turbochrome (version 4.12F12) software from PerkinElmer (Norwalk, Conn.). […]

FXR = target: T1, FXR (Homo sapiens, UniProt Q96RI1); assay: bDNA assay for SHP mRNA; assay type: cell-based; conditions: human hepatocarcinoma Huh7 cells, 24 hours, bDNA signal; read-out: SHP gene activation EC50
T1 construct: Plate human hepatocarcinoma Huh7 cells grown in DMEM:F12 with 10% fetal bovine serum; endogenous in cells; host or cells: Huh7 (human hepatocarcinoma)
T1 sequence (Q96RI1 1-486): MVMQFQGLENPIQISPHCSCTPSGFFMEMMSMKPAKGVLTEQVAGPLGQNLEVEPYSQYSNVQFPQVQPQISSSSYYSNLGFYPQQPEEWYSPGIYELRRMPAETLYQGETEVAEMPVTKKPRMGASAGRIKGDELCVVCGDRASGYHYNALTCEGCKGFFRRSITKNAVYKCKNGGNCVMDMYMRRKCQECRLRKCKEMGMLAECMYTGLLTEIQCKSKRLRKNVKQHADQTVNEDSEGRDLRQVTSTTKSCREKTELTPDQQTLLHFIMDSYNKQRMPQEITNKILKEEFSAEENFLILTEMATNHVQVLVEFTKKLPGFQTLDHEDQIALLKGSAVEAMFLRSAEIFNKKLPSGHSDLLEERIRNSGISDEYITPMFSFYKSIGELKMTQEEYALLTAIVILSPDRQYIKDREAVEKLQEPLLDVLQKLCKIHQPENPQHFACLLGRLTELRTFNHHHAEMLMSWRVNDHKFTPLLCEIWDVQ
Description: FXR is a key, direct transcriptional regulator of the Small Heterodimer Partner (SHP) gene, accession number NM_021969, an atypical member of the nuclear receptor family that lacks a DNA-binding domain. SHP interacts with several conventional and orphan members of the nuclear receptor superfamily, including retinoid receptors and thyroid hormone receptor. SHP inhibits transactivation potential of superfamily members with which it interacts. […] Since FXR directly transactivates transcription of the SHP gene, the SHP branched DNA method (bDNA) quantitates FXR activation by ligands. Thus, increased expression of SHP mRNA, as determined by increase bDNA signal, signifies engagement of FXR by an agonist.
Plate human hepatocarcinoma Huh7 cells grown in DMEM:F12 with 10% fetal bovine serum and in 96 well plate at the density of 1×10^5/well. After overnight incubation, treat the cells with test compounds at various concentrations for 24 hours. […]
Incubate the lysis buffer for 15-minute at 37° C., then transfer 100 μL of the lysate from each well to the corresponding wells of the capture plate. […] Label the mRNA to be measured by addition of 100 μL QuantiGene® label probe working buffer then incubate for 60 minutes at 46° C. […] Incubate the plates at 37° C. for up to 30 minutes and then read on a luminometer (Packard Fusion Alpha, 1 second detection) to detect the luminescent signal. […]

| Compound | lowering of total cholesterol (LDLR−/− mice) | lowering of triglycerides (LDLR−/− mice) | EC50 (FXR) |
| --- | --- | --- | --- |
| Cc1cc(CN(C)c2ccc(OCc3c(C(C)C)nnn3-c3c(Cl)cccc3Cl)cc2C)ccc1C(=O)O [Example 13, 4-[({4-[5-Isopropyl-3-(2,6-dichloro-phenyl)-3H-[1,2,3]triazol-4-ylmethoxy]-2-methyl-phenyl}-methyl-amino)-methyl]-2-methyl-benzoic acid] | 60% | 63% | – |
| Cc1cc(OCc2c(C(C)C)nnn2-c2c(Cl)cccc2Cl)ccc1N(C)Cc1ccc(C(=O)O)cc1 [Example 42, 4-[({4-[5-Isopropyl-3-(2,6-Dichloro-phenyl)-3H-[1,2,3]triazol-4-ylmethoxy]-2-methyl-phenyl}-methyl-amino)-methyl]-benzoic acid] | – | – | ~370 nM |
